Measured values from PubChem BioAssay (NCI).
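In this assay, cells in 96-well plates receive the compound at five concentrations for 48 hours. Endpoints are linearly interpolated between the surrounding concentrations. TGI is the concentration that stops growth completely.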

Legend:
Experiment in all cases: NCI-60 cell line screen, 48 h
786-0 renal = system: 786-0 renal
A498 renal = system: A498 renal
A549 NSCLC = system: A549 NSCLC
ACHN renal = system: ACHN renal
CAKI-1 renal = system: CAKI-1 renal
CCRF-CEM leukemia = system: CCRF-CEM leukemia
COLO 205 colon = system: COLO 205 colon
DLD-1 colon = system: DLD-1 colon
DMS 114 small cell lung = system: DMS 114 small cell lung
DMS 273 small cell lung = system: DMS 273 small cell lung
EKVX NSCLC = system: EKVX NSCLC
HCC-2998 colon = system: HCC-2998 colon
HCT-116 colon = system: HCT-116 colon
HL-60(TB) leukemia = system: HL-60(TB) leukemia
HOP-18 NSCLC = system: HOP-18 NSCLC
HOP-62 NSCLC = system: HOP-62 NSCLC
HT29 colon = system: HT29 colon
IGROV1 ovarian = system: IGROV1 ovarian
K-562 leukemia = system: K-562 leukemia
KM12 colon = system: KM12 colon
LOX IMVI melanoma = system: LOX IMVI melanoma
LXFL 529 NSCLC = system: LXFL 529 NSCLC
M14 melanoma = system: M14 melanoma
M19-MEL melanoma = system: M19-MEL melanoma
MALME-3M melanoma = system: MALME-3M melanoma
MOLT-4 leukemia = system: MOLT-4 leukemia
NCI-H226 lung = system: NCI-H226 lung
NCI-H23 lung = system: NCI-H23 lung
NCI-H460 lung = system: NCI-H460 lung
NCI-H522 lung = system: NCI-H522 lung
OVCAR-5 ovarian = system: OVCAR-5 ovarian
OVCAR-8 ovarian = system: OVCAR-8 ovarian
RPMI-8226 leukemia = system: RPMI-8226 leukemia
SF-268 CNS = system: SF-268 CNS
SF-295 CNS = system: SF-295 CNS
SF-539 CNS = system: SF-539 CNS
SK-MEL-5 melanoma = system: SK-MEL-5 melanoma
SK-OV-3 ovarian = system: SK-OV-3 ovarian
SN12C renal = system: SN12C renal
SNB-19 CNS = system: SNB-19 CNS
SNB-75 CNS = system: SNB-75 CNS
SNB-78 CNS = system: SNB-78 CNS
SR leukemia = system: SR leukemia
SW-620 colon = system: SW-620 colon
TK-10 renal = system: TK-10 renal
U251 CNS = system: U251 CNS
UACC-257 melanoma = system: UACC-257 melanoma
UACC-62 melanoma = system: UACC-62 melanoma
UO-31 renal = system: UO-31 renal
XF 498 CNS = system: XF 498 CNS

Measured: TGI

CC(C)NCCCC(C)Nc1ccnc2ccc3nn(C)nc3c12 (stereo not given)
> 100 µM: 786-0 renal | A498 renal | A549 NSCLC | ACHN renal | CAKI-1 renal | CCRF-CEM leukemia | COLO 205 colon | DLD-1 colon | DMS 114 small cell lung | DMS 273 small cell lung | EKVX NSCLC | HCC-2998 colon | HCT-116 colon | HL-60(TB) leukemia | HOP-18 NSCLC | HOP-62 NSCLC | HT29 colon | IGROV1 ovarian | K-562 leukemia | KM12 colon | LOX IMVI melanoma | LXFL 529 NSCLC | M14 melanoma | M19-MEL melanoma | MALME-3M melanoma | MOLT-4 leukemia | NCI-H226 lung | NCI-H23 lung | NCI-H460 lung | NCI-H522 lung | OVCAR-5 ovarian | OVCAR-8 ovarian | RPMI-8226 leukemia | SF-268 CNS | SF-295 CNS | SF-539 CNS | SK-MEL-5 melanoma | SK-OV-3 ovarian | SN12C renal | SNB-19 CNS | SNB-75 CNS | SNB-78 CNS | SR leukemia | SW-620 colon | TK-10 renal | U251 CNS | UACC-257 melanoma | UACC-62 melanoma | UO-31 renal | XF 498 CNS
